Measured values as given in PubChem BioAssay AID1963447 (Molecular Pharmacology Branch, DTP, NCI, 2024).
Values belong to the compound of their own block, whether it stands above or below them.

Tested on: 885512-296-R-J2-PDC complex spheroid growth, % test/control
Assay: Anticancer human tumor 885512-296-R-J2-PDC patient-derived breast carcinoma cell line growth inhibition [Asc]
Details: for IC50: curve of first compound; for viability, T/C: stronger effect = lower value
Summary of the method: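 Concentration series start at each agent's clinical Cmax, or at 10 microM when none is established, and drop in half-log steps; agents are applied alone or together to complex spheroids built with HUVEC and hMSC.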
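Further: spheroids exposed to compounds for seven days.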
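Wherever viability, T/C is given: 100% = DMSO vehicle control wells.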

- IC50 (second compound 0.01 µM): 168 nM
- IC50 (second compound 0.0316 µM): 237 nM
- IC50 (second compound 0.1 µM): 201 nM
- IC50 (second compound 0.316 µM): 277 nM
- IC50 (second compound 1 µM): 270 nM
SMILES: Cc1nc(N2CCC3(CC2)COC(C)C3N)c(CO)nc1Sc1ccnc(N)c1Cl (stereo not given) + CNC(C)C(=O)NC1CN(S(=O)(=O)c2cccc(S(=O)(=O)N3CCC4CCC(C(=O)NC(c5ccccc5)c5ccccc5)N4C(=O)C(NC(=O)C(C)NC)C3)c2)CCC2CCC(C(=O)NC(c3ccccc3)c3ccccc3)N2C1=O
- viability, T/C (second compound 0.01 µM, first compound 0.00949 µM): 90.9%
- viability, T/C (second compound 0.01 µM, first compound 0.03 µM): 73.2%
- viability, T/C (second compound 0.01 µM, first compound 0.0949 µM): 54%
- viability, T/C (second compound 0.01 µM, first compound 0.3 µM): 45.3%
- viability, T/C (second compound 0.01 µM, first compound 0.949 µM): 43.4%
- viability, T/C (second compound 0.01 µM, first compound 3 µM): 38.7%
- viability, T/C (second compound 0.0316 µM, first compound 0.00949 µM): 90.1%
- viability, T/C (second compound 0.0316 µM, first compound 0.03 µM): 77%
- viability, T/C (second compound 0.0316 µM, first compound 0.0949 µM): 59.3%
- viability, T/C (second compound 0.0316 µM, first compound 0.3 µM): 47.3%
- viability, T/C (second compound 0.0316 µM, first compound 0.949 µM): 43.1%
- viability, T/C (second compound 0.0316 µM, first compound 3 µM): 39.5%
- viability, T/C (second compound 0.1 µM, first compound 0.00949 µM): 102%
- viability, T/C (second compound 0.1 µM, first compound 0.03 µM): 91.7%
- viability, T/C (second compound 0.1 µM, first compound 0.0949 µM): 60.1%
- viability, T/C (second compound 0.1 µM, first compound 0.3 µM): 46.3%
- viability, T/C (second compound 0.1 µM, first compound 0.949 µM): 39.9%
- viability, T/C (second compound 0.1 µM, first compound 3 µM): 39.9%
- viability, T/C (second compound 0.316 µM, first compound 0.00949 µM): 120%
- viability, T/C (second compound 0.316 µM, first compound 0.03 µM): 107%
- viability, T/C (second compound 0.316 µM, first compound 0.0949 µM): 70.3%
- viability, T/C (second compound 0.316 µM, first compound 0.3 µM): 50.4%
- viability, T/C (second compound 0.316 µM, first compound 0.949 µM): 41.8%
- viability, T/C (second compound 0.316 µM, first compound 3 µM): 38.9%
- viability, T/C (second compound 1 µM, first compound 0.00949 µM): 114%
- viability, T/C (second compound 1 µM, first compound 0.03 µM): 112%
- viability, T/C (second compound 1 µM, first compound 0.0949 µM): 71.8%
- viability, T/C (second compound 1 µM, first compound 0.3 µM): 52.7%
- viability, T/C (second compound 1 µM, first compound 0.949 µM): 41.1%
- viability, T/C (second compound 1 µM, first compound 3 µM): 38.7%

- IC50 (second compound 0.1 µM): 17.2 nM
- IC50 (second compound 0.316 µM): 26.4 nM
- IC50 (second compound 1 µM): 17.2 nM
- IC50 (second compound 3.16 µM): 21.5 nM
- IC50 (second compound 10 µM): 28.7 nM
SMILES: Cn1ncnc1[C@H]1c2n[nH]c(=O)c3cc(F)cc(c23)N[C@@H]1c1ccc(F)cc1 + Cc1c(S(C)(=O)=O)c(-c2cc(F)cc(N3CCN(c4ccc(NS(=O)(=O)c5ccc(NC(CCN6CCC(C(=O)OCCCP(=O)(O)O)CC6)CSc6ccccc6)c(S(=O)(=O)C(F)(F)F)c5)cc4)CC3)c2)c(-c2ccc(Cl)cc2)n1C(C)C
- viability, T/C (second compound 0.1 µM, first compound 0.000316 µM): 85.5%
- viability, T/C (second compound 0.1 µM, first compound 0.001 µM): 78.4%
- viability, T/C (second compound 0.1 µM, first compound 0.00316 µM): 66.3%
- viability, T/C (second compound 0.1 µM, first compound 0.01 µM): 53.1%
- viability, T/C (second compound 0.1 µM, first compound 0.0316 µM): 47.5%
- viability, T/C (second compound 0.1 µM, first compound 0.1 µM): 29.1%
- viability, T/C (second compound 0.316 µM, first compound 0.000316 µM): 105%
- viability, T/C (second compound 0.316 µM, first compound 0.001 µM): 77.6%
- viability, T/C (second compound 0.316 µM, first compound 0.00316 µM): 85.9%
- viability, T/C (second compound 0.316 µM, first compound 0.01 µM): 58.5%
- viability, T/C (second compound 0.316 µM, first compound 0.0316 µM): 54.2%
- viability, T/C (second compound 0.316 µM, first compound 0.1 µM): 26.6%
- viability, T/C (second compound 1 µM, first compound 0.000316 µM): 87.1%
- viability, T/C (second compound 1 µM, first compound 0.001 µM): 91.1%
- viability, T/C (second compound 1 µM, first compound 0.00316 µM): 78.4%
- viability, T/C (second compound 1 µM, first compound 0.01 µM): 55.3%
- viability, T/C (second compound 1 µM, first compound 0.0316 µM): 44.1%
- viability, T/C (second compound 1 µM, first compound 0.1 µM): 27.9%
- viability, T/C (second compound 3.16 µM, first compound 0.000316 µM): 88%
- viability, T/C (second compound 3.16 µM, first compound 0.001 µM): 77.1%
- viability, T/C (second compound 3.16 µM, first compound 0.00316 µM): 77.8%
- viability, T/C (second compound 3.16 µM, first compound 0.01 µM): 66.2%
- viability, T/C (second compound 3.16 µM, first compound 0.0316 µM): 41.5%
- viability, T/C (second compound 3.16 µM, first compound 0.1 µM): 27.9%
- viability, T/C (second compound 10 µM, first compound 0.000316 µM): 120%
- viability, T/C (second compound 10 µM, first compound 0.001 µM): 97.9%
- viability, T/C (second compound 10 µM, first compound 0.00316 µM): 82.8%
- viability, T/C (second compound 10 µM, first compound 0.01 µM): 73%
- viability, T/C (second compound 10 µM, first compound 0.0316 µM): 47.2%
- viability, T/C (second compound 10 µM, first compound 0.1 µM): 27.9%
